Experimental data published in patent US20120157439A1, “RAF INHIBITOR COMPOUNDS AND METHODS OF USE THEREOF” (GENENTECH, INC., priority 2009, published 2012).
Like-named read-outs stand apart in the source and are kept apart here.

Biological target: T1, V600E full-length B-Raf (Homo sapiens, UniProt P15056, V600E)
T1 construct: 1 μM FSBA-MEK and 20 nM V600E full-length B-Raf; made in house; host or cells: sf9 insect cells (baculovirus)
Assay: B-Raf IC50 Assay (B-RAF V600E inhibition assay, Example A)
Type: biochemical
How it was run: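 Full-length V600E B-Raf (20 nM, from Sf9 baculovirus) was preincubated 15 min with 1 μM FSBA-modified wild-type MEK in pH 7.2 Pipes/KCl/MgCl2 buffer, then started with 4 μM ATP plus [γ-33P]ATP. After 60 min at 22 °C, TCA-quenched product was filter-captured and 33P incorporation counted by scintillation.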

[1] = B-Raf V600E assay of Example A: less than 100 nM, read-out: IC50
[2] = B-Raf V600E assay of Example A: less than about 1 μM, read-out: IC50
[3] = incorporation of radio labeled phosphate from [γ-33P]ATP into FSBA-modified wild-type MEK, 4 μM ATP, 20 nM V600E full-length B-Raf, 60-minute incubation, 22° C., read-out: BRAF V600E IC50

T1 sequence (P15056 whole entry V600E): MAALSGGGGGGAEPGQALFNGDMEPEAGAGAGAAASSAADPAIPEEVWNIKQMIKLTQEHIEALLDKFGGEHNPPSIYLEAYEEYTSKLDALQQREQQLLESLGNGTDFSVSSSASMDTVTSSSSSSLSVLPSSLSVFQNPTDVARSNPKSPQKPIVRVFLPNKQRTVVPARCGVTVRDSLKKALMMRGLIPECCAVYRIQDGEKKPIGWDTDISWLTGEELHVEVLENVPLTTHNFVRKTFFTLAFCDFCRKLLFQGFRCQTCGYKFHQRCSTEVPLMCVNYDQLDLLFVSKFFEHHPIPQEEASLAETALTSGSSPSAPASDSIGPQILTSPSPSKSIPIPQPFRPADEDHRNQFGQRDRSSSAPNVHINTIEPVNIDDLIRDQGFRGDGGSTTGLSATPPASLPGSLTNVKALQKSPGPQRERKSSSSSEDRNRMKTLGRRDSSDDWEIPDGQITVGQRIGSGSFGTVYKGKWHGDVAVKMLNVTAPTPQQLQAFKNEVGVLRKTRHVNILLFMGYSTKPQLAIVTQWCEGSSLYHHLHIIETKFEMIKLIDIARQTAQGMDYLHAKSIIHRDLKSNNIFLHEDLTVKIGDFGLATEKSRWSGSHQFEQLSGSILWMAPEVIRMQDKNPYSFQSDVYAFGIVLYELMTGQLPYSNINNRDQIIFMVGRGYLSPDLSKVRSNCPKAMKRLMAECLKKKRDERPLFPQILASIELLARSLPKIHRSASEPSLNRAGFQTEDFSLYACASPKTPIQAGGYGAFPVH

SMILES | IC50 [1] [nM] | IC50 [2] [nM] | IC50 [3] [nM]
CCCS(=O)(=O)Nc1ccc(F)c(NC(=O)c2c[nH]c3c(N)ncnc23)c1F [Example 102, 4-Amino-5H-pyrrolo[3,2-d]pyrimidine-7-carboxylic acid [2,6-difluoro-3-(propane-1-sulfonylamino)-phenyl]-amide] | < 100 | < 1000 | 20.6
CCCS(=O)(=O)Nc1ccc(F)c(NC(=O)c2c[nH]c3c(NC)ncnc23)c1F [Example 103, 4-Methylamino-5H-pyrrolo[3,2-d]pyrimidine-7-carboxylic acid [2,6-difluoro-3-(propane-1-sulfonylamino)-phenyl]-amide] | – | < 1000 | 115
CCCS(=O)(=O)Nc1ccc(F)c(NC(=O)c2c[nH]c3c(NC4CC4)ncnc23)c1F [Example 104, 4-Cyclopropylamino-5H-pyrrolo[3,2-d]pyrimidine-7-carboxylic acid [2,6-difluoro-3-(propane-1-sulfonylamino)-phenyl]-amide] | < 100 | < 1000 | 47.6
CCCS(=O)(=O)Nc1ccc(F)c(NC(=O)c2c[nH]c3c(NOC)ncnc23)c1F [Example 105, 4-Methoxyamino-5H-pyrrolo[2-d]pyrimidine-7-carboxylic acid [2,6-difluoro-3-(propane-1-sulfonylamino)-phenyl]-amide] | – | < 1000 | 112
CCCS(=O)(=O)Nc1ccc(F)c(NC(=O)c2c[nH]c3c(C)ncnc23)c1F [Example 106, 4-Methyl-5H-pyrrolo[3,2-d]pyrimidine-7-carboxylic acid [2,6-difluoro-3-(propane-1-sulfonylamino)-phenyl]-amide] | – | < 1000 | 189
CCCS(=O)(=O)Nc1ccc(Cl)c(NC(=O)c2csc3cncnc23)c1Cl [Example 107, Thieno[3,2-d]pyrimidine-7-carboxylic acid [2,6-dichloro-3-(propane-1-sulfonylamino)-phenyl]-amide] | < 100 | < 1000 | 9.6
CCCS(=O)(=O)Nc1ccc(F)c(NC(=O)c2csc3cncnc23)c1F [Example 108, Thieno[3,2-d]pyrimidine-7-carboxylic acid [2,6-difluoro-3-(propane-1-sulfonylamino)-phenyl]-amide] | – | < 1000 | 288

The remaining lines, values ahead:

IC50 [1] [nM] | IC50 [2] [nM] | IC50 [3] [nM] | SMILES
< 100 | < 1000 | 40.3 | O=C(Nc1c(F)ccc(NS(=O)(=O)CCCF)c1F)c1csc2cncnc12 [Example 109, Thieno[3,2-d]pyrimidine-7-carboxylic acid [2,6-difluoro-3-(3-fluoro-propane-1-sulfonyl-amino)-phenyl]-amide]
< 100 | < 1000 | 2.69 | O=C(Nc1c(Cl)ccc(NS(=O)(=O)CCCF)c1Cl)c1csc2cncnc12 [Example 110, Thieno[3,2-d]pyrimidine-7-carboxylic acid [2,6-dichloro-3-(3-fluoro-propane-1-sulfonyl-amino)-phenyl]-amide]
< 100 | < 1000 | 21.1 | CCCS(=O)(=O)Nc1ccc(Cl)c(NC(=O)c2csc3cncnc23)c1F [Example 111, Thieno[3,2-d]pyrimidine-7-carboxylic acid [6-chloro-2-fluoro-3-(propane-1-sulfonylamino)-phenyl]-amide]
< 100 | < 1000 | 7.29 | O=C(Nc1c(Cl)ccc(NS(=O)(=O)CCCF)c1F)c1nsc2cncnc12 [Example 112, Isothiazolo[4,5-d] pyrimidine-3-carboxylic acid [6-chloro-2-fluoro-3-(3-fluoro-propane-1-sulfonylamino)-phenyl]-amide]
– | < 1000 | 353 | CCCS(=O)(=O)Nc1ccc(F)c(NC(=O)c2c[nH]c3cncnc23)c1F [Example 113, 5H-Pyrrolo[3,2-d] pyrimidine-7-carboxylic acid [2,6-difluoro-3-(propane-1-sulfonylamino)-phenyl]-amide]
